Source: ChEMBL document CHEMBL1121431, “Preparation and biological evaluation of 2-azaergolines” (1980)

Tests used:
Format in all cases: functional
Mus musculus [1] = assay: Percentage inhibition of jumping was measured at 3 mg/kg dose.
Mus musculus [2] = assay: Percentage inhibition of jumping was measured at 10 mg/kg dose.
Mus musculus [3] = assay: Total jumps of mice was measured at 3 mg/kg dose.
Mus musculus [4] = assay: Total jumps of mice was measured at 10 mg/kg dose.
Mus musculus [5] = assay: Mean jumps/mouse was measured at 10 mg/kg dose.
Mus musculus [6] = assay: Mean jumps/mouse was measured at 3 mg/kg dose.

`CSCC1CC2c3cccc4[nH]nc(c34)CC2N(C)C1` (stereo unspecified) was tested, and the inhibition in vivo at 3 mg/kg (Mus musculus [1]) was 47.9%, the inhibition in vivo at 10 mg/kg (Mus musculus [2]) was 49.6% and the Activity (Mus musculus [3]) was 5113. For the same compound, the Activity (Mus musculus [4]) was 6096, the Activity (Mus musculus [5]) was 508 and the Activity (Mus musculus [6]) was 426.
